In the supplement of paper PMC10307832:

Assays:
Experiment in all cases: relative viability (nuclei count vs DMSO), 5 days (fraction); higher = more cells survive
[1] = compound: CC[C@H](Nc1ncnc2[nH]cnc12)c1nc2cccc(F)c2c(=O)n1-c1ccccc1 [Idelalisib] + CS(=O)(=O)N1CCN(Cc2cc3nc(-c4cccc5[nH]ncc45)nc(N4CCOCC4)c3s2)CC1 [Pictilisib] (partner 1 µM)
Summary of the method: (§1)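 One day after seeding in 1536-well plates, lung cancer cell lines were dosed by pin tool. Dosing was either single-drug or a fixed anchor-drug dose plus five library-drug doses (not always all listed) in √10 steps. After 5 days, nuclei were stained in one fix-and-stain step and counted on 4× images, and relative viability is the nuclei count of treated wells over that of vehicle wells, given as the median of duplicate plates.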

[2] = compound: CC[C@H](Nc1ncnc2[nH]cnc12)c1nc2cccc(F)c2c(=O)n1-c1ccccc1 [Idelalisib] + C[C@@H](Oc1cc(-c2cnn(C3CCNCC3)c2)cnc1N)c1c(Cl)ccc(F)c1Cl [Crizotinib] (partner 1 µM)
Summary of the method: as §1

[3] = compound: Nc1nc2[nH]cc(CCc3ccc(C(=O)N[C@@H](CCC(=O)O)C(=O)O)cc3)c2c(=O)[nH]1 [Pemetrexed] + NC(=O)Nc1cc(-c2cccc(F)c2)sc1C(=O)N[C@H]1CCCNC1 [AZD7762] (partner 0.2 µM)
Summary of the method: as §1

[4] = compound: Nc1nc2[nH]cc(CCc3ccc(C(=O)N[C@@H](CCC(=O)O)C(=O)O)cc3)c2c(=O)[nH]1 [Pemetrexed] + CS(=O)(=O)N1CCN(Cc2cc3nc(-c4cccc5[nH]ncc45)nc(N4CCOCC4)c3s2)CC1 [Pictilisib] (partner 1 µM)
Summary of the method: as §1

| Cell Line | relative viability ([1]; first compound 0.04 µM) | relative viability ([1]; first compound 0.1265 µM) | relative viability ([1]; first compound 0.4 µM) | relative viability ([1]; first compound 1.265 µM) | relative viability ([1]; first compound 4 µM) | relative viability ([2]; first compound 0.04 µM) | relative viability ([2]; first compound 0.1265 µM) | relative viability ([2]; first compound 0.4 µM) | relative viability ([2]; first compound 1.265 µM) | relative viability ([2]; first compound 4 µM) | relative viability ([3]; first compound 0.002 µM) | relative viability ([3]; first compound 0.006325 µM) | relative viability ([3]; first compound 0.02 µM) | relative viability ([3]; first compound 0.06325 µM) | relative viability ([3]; first compound 0.2 µM) | relative viability ([4]; first compound 0.002 µM) | relative viability ([4]; first compound 0.006325 µM) | relative viability ([4]; first compound 0.02 µM) | relative viability ([4]; first compound 0.06325 µM) | relative viability ([4]; first compound 0.2 µM) |
| --- | --- | --- | --- | --- | --- | --- | --- | --- | --- | --- | --- | --- | --- | --- | --- | --- | --- | --- | --- | --- |
| NCI-H1944 | 0.374 | 0.357 | 0.308 | 0.376 | 0.33 | 1.38 | 0.994 | 1.02 | 0.976 | 0.97 | 0.48 | 0.432 | 0.582 | 0.506 | 0.531 | 0.307 | 0.345 | 0.337 | 0.345 | 0.327 |
| NCI-H1651 | 0.685 | 0.574 | 0.523 | 0.762 | 0.625 | 0.919 | 0.861 | 0.846 | 0.864 | 0.876 | 0.412 | 0.452 | 0.51 | 0.44 | 0.455 | 0.627 | 0.49 | 0.658 | 0.554 | 0.556 |
| EBC-1 | 0.399 | 0.42 | 0.343 | 0.368 | 0.209 | 0.202 | 0.185 | 0.172 | 0.204 | 0.202 | – | – | – | – | – | 0.341 | 0.346 | 0.395 | 0.337 | 0.339 |
| COR-L 105 | 0.555 | 0.418 | 0.399 | 0.463 | 0.31 | 0.702 | 0.948 | 0.709 | 0.778 | 0.775 | – | – | – | – | – | 0.406 | 0.463 | 0.423 | 0.386 | 0.416 |
| RERF-LC-KJ | 0.493 | 0.521 | 0.581 | 0.516 | 0.53 | 0.94 | 0.845 | 0.847 | 0.785 | 0.861 | 0.837 | 1.49 | 0.919 | 1.04 | 0.618 | 0.579 | 0.471 | 0.558 | 0.594 | 0.277 |
| NCI-H1793 | 0.306 | 0.355 | 0.307 | 0.312 | 0.296 | – | – | – | – | – | 0.468 | 0.404 | 0.966 | 0.446 | 0.509 | 0.303 | 0.299 | 0.341 | 0.247 | 0.311 |
| CAL-12T | 0.382 | 0.47 | 0.257 | 0.43 | 0.417 | 0.769 | 0.636 | 0.562 | 0.635 | 0.518 | 0.562 | 0.685 | 0.782 | 0.579 | 0.543 | 0.426 | 0.484 | 0.451 | 0.416 | 0.389 |
| SW 1573 | 0.547 | 0.523 | 0.513 | 0.668 | 0.393 | 0.794 | 0.682 | 0.836 | 0.832 | 0.833 | – | – | – | – | – | 0.421 | 0.475 | 0.488 | 0.533 | 0.463 |
| COR-L23 | 0.674 | 0.8 | 0.514 | 0.8 | 0.777 | 0.881 | 0.678 | 0.67 | 0.712 | 0.393 | – | – | – | – | – | 0.58 | 0.688 | 0.825 | 0.24 | 0.147 |
